# Source: patent US9943614B2, “Cationic steroid antimicrobial diagnostic, detection, screening and imaging methods” (BRIGHAM YOUNG UNIVERSITY, priority 2008, dated 2018)
# How the values were obtained:
# [1] = system: HIV; details: cited from earlier work
# [2] = system: bacteria; details: cited from earlier work
# [3] = system: S. aureus ATCC 25923; test: In vitro binding of 99mTc-labelled agents to viable S. aureus bacteria; parameters: species or system Staphylococcus aureus; details: 10 μg concentration, time not stated
Structure (SMILES),HIV infection of primary human CD4+ T cells [1],in-vitro binding in published reports [2] [%],In vitro binding to bacteria [3] [%]
CCCCCCCCNCCC[C@@H](C)[C@H]1CC[C@H]2[C@@H]3[C@H](OCCCN)C[C@@H]4C[C@H](OCCCN)CC[C@]4(C)[C@H]3C[C@H](OCCCN)[C@]12C [CSA-13],inhibit HIV infection,–,–
O=C([O-])CN(CCN(CC(=O)[O-])CC(=O)[O-])CCN(CC(=O)[O-])CC(=O)[O-].[99Tc+4] [Compound 99mTc-DTPA],–,> 8,~10
